Eight compounds from PubChem BioAssay (NCI) can be followed below.

What all share (assay): DTP human tumour cell line panel, 48 h
In test [1] the test system is SK-MEL-2 melanoma.
The subject of test [2] is KM12 colon.
Test [3] deals with A549 NSCLC.
Test [4] concerns HCT-15 colon.
Test [5] concerns SW-620 colon.
For test [6], the system named is MOLT-4 leukemia.
For test [7], the system named is SN12C renal.
For test [8], the system named is DU-145 prostate.
The test system of test [9] is SK-OV-3 ovarian.
Test [10] deals with HT29 colon.

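Following 48 hours of exposure in 96-well plates, responses at five concentrations were used to interpolate endpoints linearly. GI50: concentration for 50% inhibition of growth. TGI is the concentration that stops growth completely.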

On to `CCCCC(=O)N/N=C/c1cc(I)cc(I)c1O`, for which the GI50 is 3.22 µM in test [1]; 3.74 µM in test [2]; 3.63 µM in test [3]; 0.897 µM in [4]; 3.91 µM in test [5]; 2.39 µM in test [6]. For the same compound, the GI50 in test [7] is 3.77 µM; in test [8], 4.24 µM; in test [9], 3.4 µM; in test [10] it was 8.46 µM. Further, the TGI in test [1] was 14.4 µM; in [2] it was 53.8 µM; in test [3], 22.4 µM; in test [4], greater than 100 µM; in [5], greater than 100 µM; in test [6], 13 µM. Besides, the TGI in [7] worked out at 26.1 µM; in test [8], 31 µM; in [9], 20.7 µM; in test [10], 29.4 µM.
As to `O=[N+]([O-])c1ccccc1N=Nc1c(O)[nH]c2ccccc12`, the total growth inhibition concentration (TGI) in test [1], in test [2], in test [3], in [4], in [5] and in test [6] was greater than 100 µM throughout. The TGI is greater than 61.6 µM in test [7], greater than 89.8 µM in test [8], greater than 53.7 µM in test [9] and greater than 100 µM in [10].
For `CS(=O)(=O)CCNCc1ccc(-c2ccc3ncnc(Nc4ccc(OCc5cccc(C(F)(F)F)c5)cc4)c3c2)o1`, the GI50 in test [1] is 5.46 µM; in [2], 5.74 µM; in test [3] it was 6.49 µM; in test [4], 4.71 µM; in test [5], 5.2 µM; in test [6] it was 4.87 µM. Also, the GI50 in [7] was 7.81 µM; in [8], 6.98 µM; in test [9], 9.25 µM; in test [10] it was 4.22 µM. Further, the TGI was 9.96 µM in [1]; 13.2 µM in test [2]; greater than 25 µM in [3]; 10.6 µM in test [4]; 10.1 µM in test [5]; greater than 20.9 µM in test [6]. The TGI is greater than 19.1 µM in test [7], greater than 22.6 µM in test [8], greater than 25 µM in test [9] and 8.32 µM in test [10].
Take `CCOC(=O)CC1(O)C=CC(=O)C=C1`: the GI50 is 2.33 µg/mL in [1]; 0.33 µg/mL in test [2]; 4.95 µg/mL in test [3]; 0.313 µg/mL in [4]; 1.68 µg/mL in test [5]; 0.4 µg/mL in test [6]. Further, the GI50 was 2.46 µg/mL in test [7], 2.54 µg/mL in [8], 1.71 µg/mL in test [9] and 2.17 µg/mL in [10]. Also, the total growth inhibition concentration (TGI) in [1] came out at 4.66 µg/mL; in [2] it was 0.738 µg/mL; in [3], 16.4 µg/mL; in [4], 0.596 µg/mL; in test [5], 4.39 µg/mL; in [6], 1.61 µg/mL. The total growth inhibition concentration (TGI) worked out at 4.6 µg/mL in [7], 7.75 µg/mL in [8], 5.53 µg/mL in [9] and 4.46 µg/mL in test [10].
In the case of `CCCCCCCCCCCCCCCc1cc(O)ccc1N`, the GI50 in test [1] was greater than 100 µM; in test [2] it was 7.43 µM; in test [3] it was greater than 100 µM; in test [4], 45.8 µM; in test [5], greater than 100 µM; in [6], 0.183 µM. Also, the GI50 in [7] is greater than 20.1 µM; in test [8], greater than 100 µM; in test [9], 31.7 µM; in test [10], greater than 100 µM. Besides, the TGI is greater than 100 µM in [1]; greater than 100 µM in [2]; greater than 100 µM in test [3]; greater than 100 µM in [4]; greater than 100 µM in [5]; greater than 24.8 µM in test [6]. Further, the TGI in test [7] was greater than 100 µM; in test [8] it was greater than 100 µM; in test [9], greater than 76.4 µM; in test [10], greater than 100 µM.
For `O=C1/C(=C/c2ccccc2Cl)N=C(c2ccccc2)N1Cc1ccco1`, the GI50 is 28.1 µM in test [1]; 36.1 µM in test [2]; 27.7 µM in test [3]; 25.5 µM in [4]; 89.6 µM in test [5]; 13.3 µM in test [6]. For the same compound, the GI50 in test [7] is 50.6 µM; in test [8] it was 69.2 µM; in [9], greater than 100 µM; in [10] it was 36.4 µM. In addition, the TGI was 55.1 µM in test [1]; greater than 100 µM in test [2]; greater than 100 µM in [3]; greater than 100 µM in test [4]; greater than 100 µM in [5]; greater than 100 µM in test [6]. Moreover, the total growth inhibition concentration (TGI) in [7], in [8], in [9] and in [10] was greater than 100 µM each time.
On to `O=C1c2ccccc2C(=O)N1c1ccc(S(=O)(=O)Nc2ncccn2)cc1`, for which the GI50 in test [1], in test [2], in [3], in [4], in test [5] and in [6] was greater than 100 µM throughout. Further, the GI50 in test [7], in test [8], in test [9] and in test [10] was greater than 100 µM in each case. Further, the TGI in test [1], in test [2], in test [3], in test [4], in test [5] and in test [6] was greater than 100 µM throughout. Moreover, the concentration for total growth inhibition (TGI) in test [7], in [8], in test [9] and in test [10] was greater than 100 µM in each case.
Turning to `CC(C)(C)c1ccc([I+]c2ccc(C(C)(C)C)cc2)cc1`, the GI50 in test [1] was 1.51 µM; in test [2], 1.04 µM; in test [3] it was 2.43 µM; in test [4], 5.08 µM; in test [5], 1.56 µM; in test [6], 1.96 µM. In addition, the GI50 in test [7] was 1.99 µM; in test [8], 1.7 µM; in test [9] it was 2.31 µM; in test [10], 1.34 µM. Further, the TGI was determined as 3.86 µM in test [1]; 2.83 µM in [2]; 6.65 µM in test [3]; 18.2 µM in test [4]; 10.7 µM in test [5]; 7.79 µM in test [6]. The TGI in test [7] was 5.21 µM; in test [8], 3.53 µM; in test [9] it was 6.75 µM; in [10], 4.78 µM.

For orientation: GI50 means the concentration giving 50% growth inhibition. Usually TGI stands for the concentration giving total growth inhibition. A high value points to lower sensitivity of the cells.
